Assay: Sample storage stability of cordycepin in rat plasma containing pentostatin
Assay type: in vitro ADME
Settings: for Autosampler (24 h, 4°C) sample stability: processed samples; for Freeze-thaw (3 cycles) sample stability / Long-term (4 weeks, -80°C) sample stability / Long-term (5 days, -80°C) sample stability / Short-term (4 h, RT) sample stability: rat plasma with 10 µM pentostatin
Protocol: Stability of cordycepin was tested in different conditions. […] Samples withdrawn at pre-determined time points were prepared and analysed for stability and degradation rate of cordycepin in rat plasma.
Sample storage stability studies were conducted with QC samples (LQC, MQC and HQC; 5 replicates for each condition). […] Short-term (benchtop) stability was tested after storing spiked QC samples for 4 h at room temperature. Long-term stability was tested in storage condition of -80 °C for 5 days and 4 weeks. Freeze-thaw cycle stability was tested after undergoing three cycles between -80 °C and room temperature. Autosampler stability was tested by analysing processed QC samples after storage at 4 °C for 24 h. All stability samples were quantified with freshly prepared calibration curve samples. Stock solution stability was tested by analysing five different aliquots of 1000 ng/mL working standard solution stored for 6 h at room temperature and comparing to a fresh working standard solution.

## Nc1ncnc2c1ncn2[C@@H]1O[C@H](CO)C[C@H]1O [cordycepin, 3′-deoxyadenosine]
HQC 4000 ng/mL
  Autosampler (24 h, 4°C) sample stability: 100.4 ± 3.4
  Freeze-thaw (3 cycles) sample stability: 106.7 ± 7.4
  Long-term (4 weeks, -80°C) sample stability: 103.8 ± 1.5
  Long-term (5 days, -80°C) sample stability: 98.6 ± 5.4
  Short-term (4 h, RT) sample stability: 107.4 ± 2.9
LQC 5 ng/mL
  Autosampler (24 h, 4°C) sample stability: 113.8 ± 8.9
  Freeze-thaw (3 cycles) sample stability: 104.5 ± 7.4
  Long-term (4 weeks, -80°C) sample stability: 93.5 ± 7.0
  Long-term (5 days, -80°C) sample stability: 107.4 ± 3.8
  Short-term (4 h, RT) sample stability: 104.7 ± 9.2
MQC 80 ng/mL
  Autosampler (24 h, 4°C) sample stability: 91.6 ± 3.6
  Freeze-thaw (3 cycles) sample stability: 113.1 ± 13.1
  Long-term (4 weeks, -80°C) sample stability: 113.5 ± 3.3
  Long-term (5 days, -80°C) sample stability: 110.0 ± 3.3
  Short-term (4 h, RT) sample stability: 98.2 ± 7.3
